Reference: patent US20200283728A1, “MODIFIED T CELLS AND USES THEREOF” (MUSC FOUNDATION FOR RESEARCH DEVELOPMENT, priority 2017, published 2020)

What was measured:
pmel-1 CD8^+ T cells = assay: pmel-1 CD8+ T cells primed with AKTi or CAL-101 in culture: phenotype and expansion; assay type: cell-based, mouse
Method: (§1) Pmel-1 CD8^+ T cells were prepared from whole splenocytes activated using 1 μM hgp100 peptide+100 IU rhIL-2/mL. Starting 3 hours after initial activation, cells were treated with either DMSO vehicle, AKT inhibitor VIII (AKTi) (Calbiochem), or CAL-101 (Selleckchem) at indicated doses. Cells were supplemented with culture media containing 100 IU rhIL-2/mL and vehicle or drug when expanded. Human Normal Donor Peripheral T cells: Polyclonal CD3^+ T cells were prepared via negative bead selection (Dynal) from peripheral blood lymphocytes and activated using CD3/CD28 beads (Gibco) with 100 IU rhIL-2/mL DMSO vehicle, 1 μM or 10 μM AKTi or CAL-101 throughout culture as indicated. On day 2 of culture, T cells were engineered to be mesothelin specific via lentiviral transduction with an anti-mesothelin chimeric antigen receptor (CAR) which contained a single-chain variable fragment (scFv) fusion protein specific for mesothelin and linked to the T cell receptor ζ (TCRζ) signaling domain and 4-1BB as described previously (Carpenito et al., 2009) (gifts from the June lab).
(§2) Surface staining of Th17 cells was performed with anti-CD4-APCCy7, anti-Vβ14-FITC (BD Biosciences) anti-CD62L-APC, anti-CD44-PerCPCy5.5, anti-CCR6-PE, anti-CD69-PECy7, anti-CCR7-PE, anti-CD27-PE, anti-CD28-PerCPCy5.5, anti-ICOS-PE and anti-CD25-PECy7/FITC (BioLegend) and viability stain (Invitrogen) on day 8. For all intracellular staining of cytokines (anti-IL-17 PerCPCy5.5, anti-IFN-γ-v450, anti-IL-2-FITC, anti-IL-21-APC, anti-IL-22-PE, anti-TNF-α-FITC; BioLegend) and transcription factors (anti-RORγt-APC, anti-cMaf-PerCPCy5.5, anti-STAT-3-PE, anti-FoxP3-FITC/PE, anti-T-bet-v450; eBiosciences), cells were stimulated for 4-5 h with 50 ng/mL PMA and 750 ng/mL ionomycin (Sigma-Aldrich). Additional antibodies used include: CD127-PECy7 clone A019D5, CD25-APCCy7 clone BC96, CD4-APCCy7 OKT4, CD45RO-APC clone UCHL1, CD62L-FITC clone DREG-56, CD8-PerCPCy5.5 clone SKI, TIM3-PE clone F38-2E2 (biolegend); CCR7-PECy7 clone CCR7, CD8-V450 clone RPA-T8, PD1-FITC clone M1H4, (BD Biosciences). Antibodies used for mouse cell analysis: CD127-PE/V450 clone A7R34, CD25-FITC clone 7D4, CD44-PerCPCy5.5/FITC clone IM7, CD69-PECy7 clone HI.2F3, CD8-PerCPCy5.5 clone 53-6.7, CD8-PECy7 clone YTS156.7.7, PD1-PerCPCy5.5 clone 29F.1A12 V[…]13-PE/APC clone MR12-3/MR12-4 (Biolegend), CD4-APCCy7 clone RM4-5, CD62L-APC clone MEL-14, KLRG1-APC/V450 clone 2F1 (BD). After 1 h, Monensin (BioLegend) was added per manufacturer's instructions. After surface staining, intracellular staining for cytokines and transcription factors was performed using Fixation and Permeabilization buffers (BioLegend) and Foxp3 Staining Buffers (eBioscience), respectively. Flow cytometry acquisition was performed on a FACSVerse or Accuri (BD Bioscience). Data were analyzed with FlowJo software (TreeStar). For experiments with sorted cells, CD8^+Vb13^+ T cells were sorted from pmel-1 cultures using Dynabeads untouched mouse CD8^+ T cell kit (Invitrogen) and a FACSAria cell sorting machine (BD Biosciences).

human T cells [1] = assay: Western blot of nuclear β-catenin, Lef1, Tcf7 in human T cells; assay type: cell-based
Method: (§3) Nuclear and cytoplasmic protein were isolated by lysis using Nuclear and Cytoplasmic Extraction Reagent with Protease&Phosphatase Inhibitor Cocktail (ThermoScientific). Protein concentration was quantified using […] (ThermoScientific) according to the manufacturer's instructions. 10 to 30 μg of total protein was separated on a Mini-PROTEAN TGX, Any kD™ gel, followed by transfer onto PVDF membrane (Bio-Rad). The membranes were blocked with 5% BSA in TBS buffer containing 0.5% Tween20. The membranes were then incubated overnight at 4° C. with the primary antibodies to β-catenin (BD Bioscience), p110δ, Tcf7 (Abcam), RORγt (Affymetrix) phospho-Akt, total-Akt, STAT-3, Histone-3, Lef1 (abcam), and GAPDH (Cell Signaling) at the concentration recommended by manufactures. Subsequently, membranes were washed and incubated for 1 h at room temperature with (HRP)-conjugated goat antibodies to mouse or rabbit IgG (Cell Signaling). For detection of protein, chemiluminescence method was performed using Western ECL Blotting Substrate (Bio-Rad) followed by X-ray film-based imaging method (ThermoScientific). Quantification of optical density performed using Fiji analysis software (NIH).

human T cells [2] = assay: RNA sequencing of CAL-101 or AKTi treated human T cells; assay type: cell-based; conditions: vs vehicle
Method: Library preparation: mRNA libraries were prepared in triplicate from each donor using the TruSeq RNA V2 kit(Illumina). Cleaved RNA fragments were copied into first strand cDNA then underwent second strand cDNA synthesis. End repair of cDNA fragments, single ‘A’ base addition and ligation to the adapter followed. The product was then purified and enriched with PCR to create the final cDNA library. Transcriptome sequencing: cDNA libraries were clonally clustered onto the sequencing flow cell using the c-BOT (Illumina) Cluster Generation Station and Hiseq Rapid Paired-End Cluster Kit v2 (Illumina). Clustered flow cells were sequenced on the Illumina HiSeq2500 Sequencing System using the Hiseq Rapid SBS Kit V2 (Illumina). Analysis: Differential gene expression analysis contrasting the factors representing different treatment protocols (CAL101 vs Vehicle; or AKTi vs Vehicle) was performed by running kallisto on the raw paired-end RNA sequencing data (in FASTQ format) to estimate transcript-level read counts based on Ensembl GRCh37 cDNA assembly for each sample (NCBI GEO database Accession Number: GSE101497). Estimated transcript-level counts were aggregated across official gene symbols using the tximport package with mapping provided by the biomaRt utility. […]

human CD3^+ T cells = assay: Human CD3+ T cells expanded with CD3/CD28 beads under CAL-101 or AKTi; assay type: cell-based
Method: as §1, §2

[3] = system: ICOS-activated Th17 cells; assay: Transcription factor expression (RORγt, cMaf, STAT-3) in ICOS-activated Th17 cells; assay type: cell-based, mouse; conditions: day 8
Method: (§4) Expansion of Th17 cells with Wnt/β-catenin and PI3K inhibitors in vitro: TRP-1 splenocytes were activated with irradiated (10Gy) C57BL/6 splenocytes pulsed with TRP-1 peptide (1 μM) added at a 5:1 ratio in 24-well plates (1 mL media containing 1.5×10^6 cells/well). TRP-1 splenocytes were co-stimulated with soluble ICOS agonist (Clone 398.4A, BioLegend) and polarized toward Th17 phenotype as describe above. For in vitro expansion from day 0 of culture 10 μM Ly294002 (Cayman Chemical) or 10 μM CAL-101 (Selleckchem) and/or 60 μM indomethacin (Sigma-Aldrich) was added. Also dimethylosulfoxide 0.01% (Sigma-Aldrich) was added as a control. Th17 cultures were also supplemented with hrIL-2 (100 IU/mL) and rmIL-23 ([…]; R&D). Medium, including cytokines and inhibitors was refreshed every 2-3 days.
as §3, with “Subsequently, membranes were washed and incubated for 1 h at room temperature with (HRP)-conjugated goat antibodies to mouse or rabbit IgG (Cell Signaling). For detection of protein, chemiluminescence method was performed using Western ECL Blotting Substrate (Bio-Rad) followed by X-ray film-based imaging method (ThermoScientific).” left out
Surface staining of Th17 cells was performed with anti-CD4-APCCy7, anti-Vβ14-FITC (BD Biosciences) anti-CD62L-APC, anti-CD44-PerCPCy5.5, anti-CCR6-PE, anti-CD69-PECy7, anti-CCR7-PE, anti-CD27-PE, anti-CD28-PerCPCy5.5, anti-ICOS-PE and anti-CD25-PECy7/FITC (BioLegend) and viability stain (Invitrogen) on day 8. […] Data were analyzed with FlowJo software (TreeStar). […]

[4] = system: ICOS-activated Th17 cells; assay: Memory and regulatory phenotype of ICOS-stimulated Th17 cells expanded with inhibitors (flow cytometry); assay type: cell-based, mouse
Method: as §4
Surface staining of Th17 cells was performed with anti-CD4-APCCy7, anti-Vβ14-FITC (BD Biosciences) anti-CD62L-APC, anti-CD44-PerCPCy5.5, anti-CCR6-PE, anti-CD69-PECy7, anti-CCR7-PE, anti-CD27-PE, anti-CD28-PerCPCy5.5, anti-ICOS-PE and anti-CD25-PECy7/FITC (BioLegend) and viability stain (Invitrogen) on day 8. For all intracellular staining of cytokines (anti-IL-17 PerCPCy5.5, anti-IFN-γ-v450, anti-IL-2-FITC, anti-IL-21-APC, anti-IL-22-PE, anti-TNF-α-FITC; BioLegend) and transcription factors (anti-RORγt-APC, anti-cMaf-PerCPCy5.5, anti-STAT-3-PE, anti-FoxP3-FITC/PE, anti-T-bet-v450; eBiosciences), cells were stimulated for 4-5 h with 50 ng/mL PMA and 750 ng/mL ionomycin (Sigma-Aldrich). Additional antibodies used include: CD127-PECy7 clone A019D5, CD25-APCCy7 clone BC96, CD4-APCCy7 OKT4, CD45RO-APC clone UCHL1, CD62L-FITC clone DREG-56, CD8-PerCPCy5.5 clone SKI, TIM3-PE clone F38-2E2 (biolegend); CCR7-PECy7 clone CCR7, CD8-V450 clone RPA-T8, PD1-FITC clone M1H4, (BD Biosciences). […] Data were analyzed with FlowJo software (TreeStar). […]

[5] = system: ICOS-activated Th17 cells; assay: Cytokine production of ICOS-stimulated TRP-1 Th17 cells expanded with inhibitors (intracellular FACS); assay type: cell-based, mouse
Method: as §4, §2

Wnt/β-catenin pathway = Wnt/β-catenin pathway expression in Th17 cells (Western blot, real-time PCR); assay type: cell-based, mouse; conditions: re-stimulation in vitro; compared to control Th17 cells
Method: Total RNA isolation was performed using the Trizol method (Life Technologies) according to the manufacturer's procedure. RNA quantity and purity was assessed using a NanoDrop ND-1000. 1 μg total RNA was transcribed with Transcriptor First Strand cDNA Synthesis Kit (Roche). qReal-time PCR was performed on LightCycler480 machine following manufacturer's protocols (Roche). Probes utilized include Rorc, IL-17, Cmaf IL-21, Cpt-1a, Tcf-7, Lef-1, Cnnb1. All probes are commercially available (ABI). Relative gene expression was determined by the comparative CT method (45). β-actin was used as housekeeping gene.
as §3

[6] = 8 days of expansion, CAL-101 10 μM, Indo 60 μM, Ly294002 10 μM, vs un-treated Th17 cells

SMILES: O=c1[nH]c2ccccc2n1C1CCN(Cc2ccc(-c3nc4cc5[nH]cnc5cc4nc3-c3ccccc3)cc2)CC1 [AKTi]
- logarithmic expansion of mouse pmel-1 CD8+ T cells (pmel-1 CD8^+ T cells; 10 μM drug): neither 10 μM AKTi or 10 μM CAL-101 impaired
- CD69 expression (pmel-1 CD8^+ T cells; 5 days of culture): decreased
- cells expressing CD62L (pmel-1 CD8^+ T cells; 5 days of culture, vehicle 65%): nearly all
- CD25 expression (pmel-1 CD8^+ T cells; in culture): slightly reduced
- CD127 expression (pmel-1 CD8^+ T cells; in culture): substantially elevated
- nuclear Lef1 protein (human T cells [1]): slightly higher, though not statistically significant
- nuclear Tcf7 protein (human T cells [1]; over vehicle): did not
- effector transcripts Fos, JunB, Gzmb, Ifng (human T cells [2]): down-regulated
- CD25 expression (human CD3^+ T cells): did not impact
- CD45RO levels (human CD3^+ T cells): similar
- growth of human T cells (human CD3^+ T cells; 10 μM drug, 8 days): dramatically inhibited growth
- CD62L expression (human CD3^+ T cells; over vehicle): slightly increased
- TIM3 expression (human CD3^+ T cells; post-activation, vs untreated T cells): prevented the up-regulation

SMILES: CC[C@H](Nc1ncnc2[nH]cnc12)c1nc2cccc(F)c2c(=O)n1-c1ccccc1 [CAL-101]
- CD62L+ cells before transfer (pmel-1 CD8^+ T cells; sort experiment, bulk vehicle 37%): 97%
- cMaf expression ([3]; control 62.9±4.8%): 42.5±3.9%
- RORγt expression ([3]; control 65.5±9.5%): 21.9±8.1%
- STAT-3 expression ([3]; control approximately 83%): 13.8±5.2%

SMILES: O=c1cc(N2CCOCC2)oc2c(-c3ccccc3)cccc12 [Ly294002, 2-(4-morpholinyl)-8-phenyl-4H-1-benzopyran-4-one]
- FoxP3 and CD25 expression ([4]; cultured 8 days and upon secondary stimulation in vitro): expressed more FoxP3 and CD25
- central memory phenotype (CD44^highCD62L^high) ([4]; day 8 in vitro): also supported generation of TCM17 cells
- IFN-γ production [5, 6]: suppress
- IL-17A production [5, 6]: suppress
- cytokine secretion pattern overall ([5]; compared with the results for CAL-101 or Indo plus CAL-101): Similarly results were obtained
- Tcf7 protein level after re-stimulation (Wnt/β-catenin pathway): could not replace the CAL-101 effect on Tcf7 overexpression
